Experimental data published in article PMC4433263, “Identification of Rv3852 as an Agrimophol-Binding Protein in Mycobacterium tuberculosis” (PLoS ONE, 2015).

Target: T1, Rv3852 (Mycobacterium tuberculosis, UniProt I6YHB0)
T1 construct: gene hns
Test: ITC; supported by competitive EMSA with proU2 DNA
Format: binding

T1 sequence (I6YHB0 2-134 limits assumed): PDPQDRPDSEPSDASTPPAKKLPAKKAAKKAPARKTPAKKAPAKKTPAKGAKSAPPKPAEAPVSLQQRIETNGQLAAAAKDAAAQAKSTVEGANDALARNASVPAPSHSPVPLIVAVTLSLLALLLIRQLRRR

Row | Structure (SMILES) | Kd
1 | CCCC(=O)c1c(O)c(CC2(C)C(=O)C(C(=O)C(C)CC)=C(O)C(C)=C2O)c(O)c(C)c1OC (centres unmarked) [agrimophol] | 34 µM
2 | C#CCOc1c(C)c(O)c(Cc2c(O)c(C)c(O)c(C(=O)C(C)CC)c2O)c(O)c1C(=O)CCC (centres unmarked) [a1] | 22 µM
